Numbers after ± are expanded uncertainties.
Experiments:
[1] = Crystal; DTA
[2] = Molar enthalpy of transition or fusion; conditions: Crystal; DSC

Normal melting temperature [1]: 42.70 ± 0.7 °C
Molar enthalpy of transition or fusion [2]: 8.43 ± 0.234 kcal/mol
Compound: CCCCCCCCCCCC(=O)O [dodecanoic acid]

Source: the NIST ThermoML archive (doi:10.1016/j.tca.2017.12.019)
